Measured values as given in US8097616B2, “Process for preparation of high-purity meloxicam and meloxicam potassium salt” (Egis Gyogyszergyar Nyilvanosan Mukodo Reszvenytarsasag, priority 2004, dated 2012).

Assay: solubility in water at the acidification pH
Assay type: physicochemical
Settings: acidified until pH 6

## Cc1cnc(NC(=O)C2=C(O)c3ccccc3S(=O)(=O)N2C)s1 [meloxicam, 4-hydroxy-2-methyl-N-(5-methyl-2-thiazolyl)-2H-1,2-benzothiazine-3-carboxamide-1,1-dioxide]
  solubility in water: almost insoluble
